According to patent US11633421B2, “Use of NAD precursors for improving maternal health and/or offspring health” (UNIVERSITY OF IOWA RESEARCH FOUNDATION, priority 2016, dated 2023):

Experiments:
Format in all cases: in vivo, mice
[1] = Milk production, oxytocin-induced milk collection (Example 1); conditions: collected volume per mother after oxytocin, days 0, 7, 14 and 21 after partum; NC+NR vs NC
Experimental: (§1) Female C57BL/6N mice were raised in 12 hour light:dark cycles on Teklad 2920X chow (NC). For 12 weeks prior to mating with a single C57BL/6N male, females were on either NC (n=4) or NC+NR (n=4). Females were maintained on the same diet through gestation and weaning, which was at 21 days after birth.
To determine the production of milk, we separated mothers were separated from pups for several hours and provided an injection of oxytocin on days 0, 7, 14 and 21 after partum. Milk was carefully collected by pipetting and the collected volume per mother was plotted. The galactogogue activity of NR was striking and entirely unexpected.

[2] = Offspring fasting glucose (Example 1)
Experimental: as §1, with “birth. […] The mild hypoglycemia of mice on standard chow was not expected and the improvement in glycemic control by virtue of supplementing mothers was unexpected.” for “birth.”

[3] = Post-partum NR supplementation: maternal body mass, food consumption, body composition; conditions: NR only after birth
Description: FIGS. 6A-D. NR-supplemented mouse mothers lose weight during the 21 day lactation period without diminished food consumption (day 7-21). Delta body mass refers to day 21 post-partum maternal weight minus day 0 post-partum weight (FIG. 6A). Food consumption was day 7-21 (FIG. 6B). NR-supplemented mothers tend to lose fat (FIG. 6C) and maintain lean mass (FIG. 6D). Body composition refers to day 21 post-partum maternal fat and lean mass minus day 0 post-partum maternal fat and lean mass. A series of in vivo murine experiments were performed to evaluate whether maternally supplemented NR has the ability to improve maternal and neonatal health and development.

[4] = Post-partum NR supplementation: milk volume and macronutrient density
Experimental: FIGS. 8A-C. Milk from NR-supplemented mothers had normal macronutrient density. Oxytocin-induced milk collection at indicated days. Protein (FIG. 8A), carbohydrate (FIG. 8B) and lipid concentration (FIG. 8C) was not changed. A series of in vivo murine experiments were performed to evaluate the effects of nicotinamide riboside on milk production. […] As shown in FIGS. 8A-C, the concentration of protein, carbohydrate and fat in the milk of NR-supplemented mothers was normal. Because there is approximately 2-fold more milk produced by NR-supplemented mothers, NR-supplemented mothers transmit more calories to their offspring, which thereby assists maternal weight loss and neonatal development. In FIG. 9A, the concentration of NAD precursor vitamins in the milk from control mothers and NR-supplemented mothers was determined. […] Oral NR was labeled with heavy atoms in the nicotinamide and ribose moieties of NR and this was provided to lactating mothers by gavage.

[5] = tested on: lipid biosynthetic genes and lactose biosynthetic genes; experiment: Mammary lipid and lactose biosynthetic gene expression; conditions: NR in the diet
Description: FIGS. 13A-D. NR boosts prolactin circulation and mammary biosynthetic pathways for protein, fat and carbohydrate. FIG. 13A. Prolactin levels in plasma from dam on NC or NR chow. FIG. 13B. mTOR pathway is activated in NR-supplemented mammary tissue. FIG. 13C. Genes involved in lipid biosynthesis are activated in NR-supplemented mammary tissue. FIG. 13D. Genes involved in lactose synthesis pathway are activated in NR-supplemented mammary tissue. […] In addition, the size of the mammary tissue itself is greater in NR-supplemented mothers than in non-supplemented mothers (FIG. 14A).

[6] = tested on: PEPCK; experiment: Pup liver gluconeogenic gene expression; conditions: males and females whose mothers were NR-supplemented
Description: FIGS. 17A-C. 22 day old pups of NR-supplemented mothers have improved post-fasting glucose homoeostasis with higher gluconeogenic gene expression and higher hepatic glycogen storage. Not only are the offspring of NR-supplemented mothers a bit bigger, they also have better glycemic control. This is due to better gluconeogenic gene expression and higher glycogen storage. The order of the bars from left to right are: males of normal chow (NC) mothers (white with light grey outline), followed by males of NR-supplemented mothers (filled light grey), followed by females of NC mothers (white with dark grey outline), followed by females of NR-supplemented mothers (filled dark grey). Earlier it was shown that supplementation of females during their pregnancy and during the lactation period with NR produced pups with better glycemic control. […] Particularly as NR is not directly transmitted to offspring of NR-supplemented mothers, none of these effects of maternally supplemented NR could have been anticipated.

[7] = Elevated plus maze test of offspring; conditions: 85 day old adult offspring; males reached statistical significance
Description: Males are not afraid to “stick their head out”. The order of the bars from left to right are: males of normal chow (NC) mothers (white with light grey outline), followed by males of NR-supplemented mothers (filled light grey), followed by females of NC mothers (white with dark grey outline), followed by females of NR-supplemented mothers (filled dark grey). At 64 days past the mother's intervention, the willingness of 85 day old adult offspring of mice from this experiment (NC or NR-supplemented) to put their heads out in an elevated plus maze was tested. […] The clear indication is that maternal NR produces improvements in maternal behavior and/or qualitative and/or quantitative improvements in lactation sufficient to improve the development and health of offspring. The ability of the mother's 21 day micronutrition to produce beneficial effects on her offspring into adulthood was not at all anticipated.

[8] = supplementing post-gestational mothers

## NC(=O)c1ccc[n+]([C@@H]2O[C@H](CO)[C@@H](O)[C@H]2O)c1 [NR, nicotinamide riboside]
[1]
  increase in milk production: 2-3 x
[2]
  glucose after an overnight fast, mice raised by NR-supplemented mothers: better at maintaining glucose
[3]; day 7-21
  maternal food consumption: as least as much as non-supplemented mothers
[3]; day 21 minus day 0 post-partum
  maternal body weight: lost significant weight
  maternal fat mass: lost significant weight, specifically in fat mass
  maternal lean mass: maintained their lean mass
[4]; NR-supplemented mothers
  concentration of carbohydrate in the milk: normal
  concentration of fat in the milk: normal
  concentration of protein in the milk: normal
[4]; [8]
  milk produced vs non-supplemented mothers: approximately 2 fold
  milk production: large increase
[5]
  mammary lactose biosynthetic genes: strongly induced
  mammary lipid biosynthetic genes: strongly induced
[6]
  liver expression of the gluconeogenic bypass gene PEPCK: higher
[7]
  willingness to put heads out in an elevated plus maze: higher willingness
